Reference: patent publication US10485773B2, “Benzenesulfonamide derivatives and method for treating cancer” (GONGWIN BIOPHARM HOLDINGS CO., LTD., priority 2016, dated 2019)
Like-named read-outs stand apart in the source and are kept apart here.

Assays:
[1] = first dissolution test in DMSO or water; settings: for Total volume of DMSO for dissolving the p-TSA derivatives / Total volume of water for dissolving the p-TSA derivatives: first dissolution test, amount for a 3M solution in 0.5 mL, up to 15000 μL; for dissolution in the first dissolution test: DMSO or water; for solubility: thermodynamic from solid
Description: Each of the powder of p-TSA derivatives was duplicated, placed in each 15 mL centrifuge tube, followed by adding 200 μL DMSO or 200 μL water and shaking for 10 to 20 seconds for dissolution observation. If the powder was not dissolved, additional DMSO or water was added, and then the mixture was shaken. The tube was left to stand for 10 minutes for observation if the powder was still not dissolved after adding 1 mL DMSO or 1 mL water. If the powder was still not dissolved after adding 5 mL DMSO or 5 mL water, additional 1 mL DMSO or 1 mL water was added, and then the mixture was shaken for 30 seconds. If the powder was still not dissolved after adding 10 mL DMSO or 10 mL water, the tube was left to stand for 12 to 16 hours and observed on the next day. DMSO or water was added into the tube having the undissolved p-TSA derivatives up to 15 mL, followed by shaking for 30 minutes for observation.

[2] = second dissolution test in DMSO or water; type: physicochemical; settings: for Total volume of DMSO for dissolving the p-TSA derivatives / Total volume of water for dissolving the p-TSA derivatives: second dissolution test, 0.1 g powder; for dissolution in the second dissolution test: 100 mg powder, DMSO or water
Description: A second dissolution test was performed for the undissolved p-TSA derivatives. Each of 100 mg p-TSA derivatives powder was placed in each of the scintillation vial, followed by adding 500 μL DMSO or 500 μL water and shaking for 30 seconds for dissolution observation.

[3] = test system: human non-small-cell lung cancer cell lines H460; assay: SRB growth inhibition of lung cancer cells; type: cell-based; settings: 48 hours, SRB
Description: (§1) After letting to stand for 10 minutes at room temperature, the supernatant of each well was removed, and each well was washed with 200 μL H2O once. […] Each of the plates was then placed in the laminar flow cabinet for 1 hour for air dry. 50 μL 0.4% sulforhodamine B (SRB) dye was added into each well of the 96-well plate. […] Each of the plates was then placed in the laminar flow cabinet for 40 minutes to 1 hour for air dry. 1×Tris-Base solution with pH 7.0 to 7.4 was added to each well of the 96-well plate to dissolve the protein complex formed in the bottom of each well, followed by tapping the 96-well plate, allowing the complex in each well to be dissolved uniformly. Absorption of each well under 515 nm was read. […] Each of the experimental group was performed in triplet.

[4] = test system: human liver cancer cell lines Hep3B; assay: SRB growth inhibition of liver cancer cells; type: cell-based; settings: 48 hours, SRB
Description: as §1

[5] = Homo sapiens, NCI-H460, 48 h, derivative dissolved in water, read-out: IC50 of H460 in water
[6] = derivative dissolved in DMSO, read-out: IC50 of H460 in DMSO
[7] = Homo sapiens, Hep3B, 48 h, derivative dissolved in water, read-out: IC50 of Hep3B in water
[8] = derivative dissolved in DMSO, read-out: IC50 of Hep3B in DMSO
[9] = Homo sapiens, NCI-H460, 48 h, derivative dissolved in DMSO, read-out: IC50 of H460 in DMSO
[10] = Homo sapiens, Hep3B, 48 h, derivative dissolved in DMSO, read-out: IC50 of Hep3B in DMSO

| Compound | Total volume of DMSO for dissolving the p-TSA derivatives ([1]; DMSO) | Total volume of water for dissolving the p-TSA derivatives ([1]; water) | IC50 [3, 9] [mM] | IC50 [4, 10] [mM] | other results |
| --- | --- | --- | --- | --- | --- |
| Cc1ccc(S(=O)(=O)N2CCC(O)CC2)cc1 [PTSA032] | insoluble in 15000 μL | insoluble in 15000 μL | – | – | Dissolution of p-TSA derivatives (in DMSO and/or water) ([1]; overall result of first and second dissolution tests, category is the column head of Table 3): not dissolved in neither DMSO nor water; Total volume of DMSO for dissolving the p-TSA derivatives [2]: insoluble in 20 ml mL; Total volume of DMSO for dissolving the p-TSA derivatives ([2]; listed as PTSA0032): > 20 mL; Total volume of water for dissolving the p-TSA derivatives [2]: insoluble in 20 mL; Total volume of water for dissolving the p-TSA derivatives ([2]; listed as PTSA0032): > 20 mL |
| CC(=O)NS(=O)(=O)c1ccc(C)cc1 [PTSA002] | insoluble in 15000 μL | insoluble in 15000 μL | – | – | dissolution in the first dissolution test [1]: not dissolved in DMSO or water; dissolution in the second dissolution test [2]: dissolved in both of; Total volume of DMSO for dissolving the p-TSA derivatives [2]: 8 mL; Total volume of water for dissolving the p-TSA derivatives [2]: 5.25 mL; IC50 [3, 5]: > 6.03 mM; IC50 [3, 6]: > 0.27 mM; IC50 [4, 7]: > 6.03 mM; IC50 [4, 8]: > 0.27 mM |
| Cc1ccc(S(=O)(=O)N2CC(=NNC(=O)C3CN(S(=O)(=O)c4ccc(C)cc4)C3)C2)cc1 [PTSA073] | insoluble in 15000 μL | insoluble in 15000 μL | – | – | dissolution in the first dissolution test [1]: not dissolved in DMSO or water; dissolution in the second dissolution test [2]: dissolved in both of; Total volume of DMSO for dissolving the p-TSA derivatives [2]: 4.04 mL; Total volume of water for dissolving the p-TSA derivatives [2]: insoluble in 20 mL |
| Cc1ccc(S(=O)(=O)NCCF)cc1 [PTSA049] | insoluble in 15000 μL | insoluble in 15000 μL | > 0.174 | > 0.174 | dissolution in the first dissolution test [1]: not dissolved in DMSO or water; dissolution in the second dissolution test [2]: dissolved in both of; Total volume of DMSO for dissolving the p-TSA derivatives [2]: 9.5 mL; Total volume of water for dissolving the p-TSA derivatives [2]: insoluble in 20 mL |
| Cc1ccc(S(=O)(=O)N2CCC(O)C2)cc1 (centres unmarked) [PTSA036] | 530 µL | insoluble in 15000 μL | 2.54 | 3.4 | – |
| COCCCNS(=O)(=O)c1ccc(C)cc1 [PTSA043] | 505 µL | insoluble in 15000 μL | 1.61 | 1.84 | – |
| Cc1ccc(S(=O)(=O)N2CC3(COC3)C2)cc1 [PTSA041] | 4000 µL | insoluble in 15000 μL | > 2 | > 2 | – |
| Cc1ccc(S(=O)(=O)N2CC(F)C2)cc1 [PTSA065] | 2500 µL | insoluble in 15000 μL | 1.33 | 1.45 | – |
| Cc1ccc(S(=O)(=O)NC(=O)NS(=O)(=O)c2ccc(C)cc2)cc1 [PTSA018] | 2000 µL | 2500 µL | – | – | IC50 [3, 5]: > 3 mM; IC50 [3, 6]: > 3 mM; IC50 [4, 7]: > 3 mM; IC50 [4, 8]: > 3 mM |
| Cc1ccc(S(=O)(=O)NC(CO)CO)cc1 [PTSA029] | 500 µL | insoluble in 15000 μL | 1.97 | 3.05 | – |
| CON=C1CN(S(=O)(=O)c2ccc(C)cc2)C1 [PTSA072] | 4500 µL | insoluble in 15000 μL | > 1.12 | > 1.12 | – |
| Cc1ccc(S(=O)(=O)NC[C@@H](O)CO)cc1 [PTSA027] | 575 µL | insoluble in 15000 μL | 5.35 | 4.1 | – |
| Cc1ccc(S(=O)(=O)NCC2(CO)COC2)cc1 [PTSA039] | 500 µL | insoluble in 15000 μL | 4.16 | 3.74 | – |
| Cc1ccc(S(=O)(=O)NCCN(C)C)cc1.Cl [PTSA051] | 1500 µL | 1000 µL | 1.82 | 1.41 | IC50 [3, 5]: 1.75 mM; IC50 [4, 7]: 1.44 mM |
| Cc1ccc(S(=O)(=O)NCCS(=O)(=O)O)cc1 [PTSA048] | 2000 µL | 10000 µL | > 3 | > 3 | IC50 [3, 5]: > 3 mM; IC50 [4, 7]: > 3 mM |
| Cc1ccc(S(=O)(=O)NCCOCCO)cc1 [PTSA022] | 505 µL | insoluble in 15000 μL | 3.65 | 4.72 | – |
| Cc1ccc(S(=O)(=O)NCC(=O)O)cc1 [PTSA044] | 600 µL | insoluble in 15000 μL | 7.93 | 9.11 | – |
| Cc1ccc(S(=O)(=O)NCCCO)cc1 [PTSA021] | 495 µL | insoluble in 15000 μL | 2.45 | 2.81 | – |
| COC(=O)NS(=O)(=O)c1ccc(C)cc1 [PTSA012] | 680 µL | 500 µL | – | – | IC50 [3, 5]: > 5 mM; IC50 [3, 6]: 6.11 mM; IC50 [4, 8]: 7.5 mM |
| Cc1ccc(S(=O)(=O)N2CC(C#N)C2)cc1 [PTSA063] | 900 µL | insoluble in 15000 μL | 1.27 | 1.3 | – |
| Cc1ccc(S(=O)(=O)N2CC(C(N)=O)C2)cc1 [PTSA062] | 3000 µL | insoluble in 15000 μL | > 2.25 | > 2.25 | – |
| Cc1ccc(S(=O)(=O)N2CC(C(=O)NN)C2)cc1 [PTSA071] | 1500 µL | insoluble in 15000 μL | 1.04 | 1.02 | – |
| Cc1ccc(S(=O)(=O)N2CCC(CN)CC2)cc1.Cl [PTSA055] | 2000 µL | 3000 µL | 0.617 | 0.596 | solubility ([1]; DMSO, organic solvent or mixture): 229 mg/mL; solubility ([1]; water): 152 mg/mL; IC50 [3, 5]: 0.651 mM; IC50 [4, 7]: 0.61 mM |
| Cc1ccc(S(=O)(=O)NC(C)(CO)CO)cc1 [PTSA030] | 695 µL | insoluble in 15000 μL | 3.3 | 4.31 | – |
| COC(=O)NS(=O)(=O)c1ccc(C)cc1 [PTSA011] | 560 µL | insoluble in 15000 μL | 5.49 | 4.56 | – |
| Cc1ccc(S(=O)(=O)N2CCC[C@H]2CO)cc1 [PTSA033] | 500 µL | insoluble in 15000 μL | 1.42 | 1.76 | – |
| Cc1ccc(S(=O)(=O)NCCO)cc1 [PTSA020] | 490 µL | 10000 µL | 2.61 | 2.65 | IC50 [3, 5]: > 1 mM; IC50 [4, 7]: > 1 mM |
| Cc1ccc(S(=O)(=O)N[C@@H](C)CO)cc1 [PTSA026] | 500 µL | insoluble in 15000 μL | 3.25 | 3.92 | – |
